Measurements: patent US20150133390A1, “Identification of New Therapeutic Uses for Known Therapeutic Agents” (The Board of Trustees of the Leland Stanford Junior …, priority 2012, published 2015)
“Also recorded” adds a separate entry of the source.

Assays:
[1] = test system: FVB donor hearts implanted into C57BL/6 WT mice (cardiac allograft); experiment: Graft survival in murine heterotopic cardiac transplant model of acute rejection; type: in vivo, mouse; settings: for allograft survival compared to untreated AR / Median survival: FVB-to-C57BL/6 cardiac transplant; for allograft survival compared to untreated AR: 6 pairs per group; for Median survival: atorvastatin 75 and dasatinib 25 mg/kg/day oral gavage, cyclosporine 20 mg/kg/day i.p., followed to POD 30, untreated AR 10 days
Experimental: (§1) FVB donor hearts were implanted into the abdomen of C57BL/6 WT mice representing a complete MHC mismatch, as described previously. […] Animal activity, body weight and graft viability (abdominal palpation) were assessed daily.
(§2) Before oral gavages of Atorvastatin and Dasatinib, aliquots were mixed thoroughly. Unused formulations were discarded. Treatment started the day prior to transplantation and lasted until the day before sacrifice at post operation day 7 by exsanguination. Grafts were harvested and divided into three equal parts for downstream analyses.
Graft viability (abdominal palpation) were assessed daily for these animals until post operation day 30.

CRM genes = experiment: Transcriptional analysis of mouse heart allografts (microarray with IPA pathway analysis, Q-PCR of CRM genes); type: in vivo; settings: treatment group against untreated AR group
Experimental: We performed functional pathway analysis using Pathway-Express (PE). We used meta effect-size as fold change in PE to identify significant pathways. We used FDR<0.1 as a threshold for identifying significant pathways. We performed network analysis using IPA with option to only include “direct relationship” in order to avoid spurious connections due to “indirect relations”.
QRT-PCR for the CIRM module genes in mouse allografts was performed using a high-throughput RT-PCR instrument (BioMark; Fluidigm, San Francisco, Calif.). […] Data was analyzed using the BioMark RT-PCR Analysis Software Version 2.0. Using the delta Ct method, gene expression in each sample was calculated relative to the expression in a universal RNA sample (human universal RNA, Stratagene, CA). […]
For whole mouse genome expression analysis, Agilent Whole Mouse Genome 4×44K 60mer oligonucleotide arrays (G2519F, Agilent Technologies, Palo Alto, Calif.) were used. […] After purification, using the RNeasy mini kit (Qiagen), cRNA yield and Cy incorporation efficiency (specific activity) into the cRNA were determined using a NanoDrop Spectrophotometer (NanoDrop Technologies). cRNAs showing a yield >825 ng and a specific activity of 8-20 pmol/μg were selected for further processing. […]

[2] = test system: graft infiltrating cells in cardiac allograft; experiment: Graft histology / immunohistochemistry of infiltrating cells at POD 7; type: in vivo, mouse; settings: for number of infiltrating cells (immunohistochemistry): POD 7, compared to untreated AR
Experimental: as §1, §2
One third of the explanted allograft heart (POD7) was immediately fixed in […] buffered formalin, embedded in paraffin and subsequently stained with hematoxylin and eosin for histological assessment of tissue according to standard protocols. Pictures of the graft tissue were taken at 10× magnification using a Nikon E600 light microscope (Nikon Instruments Inc., Melville, N.Y.) and Spot V4.6 imaging software (Spot Imaging, Sterling Heights, Mich.).

[3] = test system: infiltrating cell subsets in cardiac allografts; experiment: Flow cytometry count of infiltrating cell subsets in cardiac allografts; type: in vivo, mouse; settings: for number of infiltrating B220+ B cells compared to cyclosporine: POD 7, compared to cyclosporine group; for number of CD45+ infiltrating cells / number of infiltrating B220+ B cells / number of infiltrating CD4+ T cells / number of infiltrating CD8+ T cells / number of infiltrating CD11c+ dendritic cells / number of infiltrating F4/80+ macrophages / number of infiltrating NK1.1+ natural killer cells: POD 7, compared to untreated AR
Experimental: as §1, §2
Fluorescein isothiocyanate (FITC), phycoerythin (PE), or allophycocyanin-conjugated mAbs specific for mouse CD4 (GK1.5), CD8a (53-6.7), F4/80 (BM8), B220 (RA3-6B2), Gr1 (RB6-8C5), CD11c (N418), NK1.1 (PK136), CD45 (30-F11), and their isotype controls were purchased from BD Biosciences (San Jose, Calif.), eBioscience (San Diego, Calif.), or BioLegend (San Diego, Calif.). Immediately after graft explantation at day 7 post transplantation, one third of the cardiac allograft was homogenized in RPMI 1640 media with 2 mg/mL Collagenase D (Worthington Bio) and 10% FCS for 2 h at RT. Cells were first incubated with normal hamster serum, normal mouse serum (Jackson ImmunoResearch), and 5 μg/ml anti-CD16/32 mAb (2.4G2; BD Bioscience), then stained with FITC-, PE-, and APC-conjugated mAbs for 30 min at 4° C. To exclude the dead cells, 7-Amino-Actinomycin D (BD Bioscience) was added and incubated for 10 minutes before analysis. Expression of markers was determined by FACS Calibur (BD Bioscience) and FlowJo software (Tree Star).

INPP5D = settings: van Leuven et al., 2010; cited from earlier work

SMILES: CC(C)c1c(C(=O)Nc2ccccc2)c(-c2ccccc2)c(-c2ccc(F)cc2)n1CC[C@@H](O)C[C@@H](O)CC(=O)O [atorvastatin]
- allograft survival compared to untreated AR [1]: significantly extended allograft survival
- Median survival [1]: 17 days
- pathways affected (IPA pathway analysis of down-regulated genes) (CRM genes): monocyte- and macrophage-related pathways
- number of infiltrating cells (immunohistochemistry) [2]: significantly reduced; also recorded: fewer infiltrating cells
- number of infiltrating B220+ B cells compared to cyclosporine [3]: reduced
- number of CD45+ infiltrating cells [3]: significantly reduced
- number of infiltrating B220+ B cells [3]: significantly reduced
- number of infiltrating CD4+ T cells [3]: reduced
- number of infiltrating CD8+ T cells [3]: reduced
- number of infiltrating CD11c+ dendritic cells [3]: significantly reduced
- number of infiltrating F4/80+ macrophages [3]: significantly reduced
- number of infiltrating NK1.1+ natural killer cells [3]: significantly reduced

SMILES: Cc1nc(Nc2ncc(C(=O)Nc3c(C)cccc3Cl)s2)cc(N2CCN(CCO)CC2)n1 [dasatinib]
- hazard ratio for graft survival ([1]; Cox-proportional hazard analysis, treated compared to untreated AR): 66.26
- allograft survival compared to untreated AR [1]: significantly extended allograft survival
- Median survival [1]: 24.5 days
- pathways affected (IPA pathway analysis of down-regulated genes) (CRM genes): cell cycle-related pathways
- number of infiltrating cells (immunohistochemistry) relative to cyclosporine ([2]; POD 7, compared to treatment with cyclosporine (p>0.05)): equivalent
- number of infiltrating cells (immunohistochemistry) [2]: significantly reduced; also recorded: fewer infiltrating cells
- number of infiltrating B220+ B cells compared to cyclosporine [3]: reduced
- number of CD45+ infiltrating cells [3]: significantly reduced
- number of infiltrating B220+ B cells [3]: significantly reduced
- number of infiltrating CD4+ T cells [3]: reduced
- number of infiltrating CD8+ T cells [3]: reduced
- number of infiltrating CD11c+ dendritic cells [3]: significantly reduced
- number of infiltrating F4/80+ macrophages [3]: significantly reduced
- number of infiltrating NK1.1+ natural killer cells [3]: significantly reduced

SMILES: COc1c(C)c2c(c(O)c1C/C=C(\C)CCC(=O)OCCN1CCOCC1)C(=O)OC2 [Mycophenolate mofetil]
- reduction of expression of INPP5D (INPP5D): more than 2 fold
